Data reported in US20100099756A1, “USES OF INCENSOLE, INCENSOLE ACETATE AND DERIVATIVES THEREOF” (YISSUM RESEARCH DEVELOPMENT COMPANY OF THE HEBREW …, priority 2006, published 2010).

How the values were obtained:
TRPV3 = biological target: T1, TRPV3 (Mus musculus, UniProt Q8K424); assay: Elevated plus maze in WT and TRPV3−/− mice; type: in vivo, C57BL/6 mice; set-up: from tissue; host or cells: whole animal, wild type C57BL/6 female mice (TRPV3 KO as control); details: 75 mg/kg
T1 sequence (Q8K424 1-791): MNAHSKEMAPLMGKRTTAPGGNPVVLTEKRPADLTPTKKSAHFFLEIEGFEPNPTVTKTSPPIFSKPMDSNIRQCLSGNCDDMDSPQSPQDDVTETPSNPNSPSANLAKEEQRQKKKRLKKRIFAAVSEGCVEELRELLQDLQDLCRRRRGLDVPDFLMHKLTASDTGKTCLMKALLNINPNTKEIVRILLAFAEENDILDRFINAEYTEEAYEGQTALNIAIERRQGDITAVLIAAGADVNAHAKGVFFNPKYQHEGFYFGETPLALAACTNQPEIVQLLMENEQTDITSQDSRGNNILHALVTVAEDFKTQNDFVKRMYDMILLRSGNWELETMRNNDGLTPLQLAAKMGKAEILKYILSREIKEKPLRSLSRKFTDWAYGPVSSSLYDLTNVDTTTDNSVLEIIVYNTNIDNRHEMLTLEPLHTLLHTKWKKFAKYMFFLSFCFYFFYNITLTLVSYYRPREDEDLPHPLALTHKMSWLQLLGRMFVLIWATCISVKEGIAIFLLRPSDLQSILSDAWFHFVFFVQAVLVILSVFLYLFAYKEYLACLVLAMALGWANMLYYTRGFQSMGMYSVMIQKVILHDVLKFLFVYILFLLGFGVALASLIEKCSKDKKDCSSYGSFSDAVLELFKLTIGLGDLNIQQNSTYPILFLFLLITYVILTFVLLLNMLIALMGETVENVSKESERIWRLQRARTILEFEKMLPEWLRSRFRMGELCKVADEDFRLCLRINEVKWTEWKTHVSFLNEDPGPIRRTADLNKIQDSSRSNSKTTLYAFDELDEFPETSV
Description: Wild type and TRPV3^−/− mice (18-20 weeks old) were injected with vehicle (isopropanol:emulphor:saline=1:1:18) or IA (75 mg/kg). 30 min later they were tested in a, the elevated plus maze (5 min), followed by b, 9 min exposure to the Porsolt forced-swimming test. […] Data are presented as means±SEM; n=4-5. * p<0.05, compared to WT-Vehicle-injected mice (Bonferroni post hoc test). ** p<0.01, compared to WT-Vehicle-injected mice (Bonferroni post hoc test).
Mice were placed in the central platform (10×10 cm) between the open (10×45 cm) and enclosed (10×45×40 cm) arms of a plus maze. The number of entries and the time spent in each of the arms was recorded. As described by others (Crawley, 2000; Treit and Menard, 1998), an ‘anti-anxiety’ effect was calculated both as the ratio of entries onto the open arms to total arm entries, and as the % time on the open arms proportional to the time in the closed arms. Mice (female Sabra strain, aged 3.5-4.5 months old) were injected intraperitoneally with 10, 30 or 50 mg/kg of incensole acetate or with vehicle. Each dose was administered to 5 mice. Fifty min after injection the mice were tested in the plus-maze for […] effects. Desipramine (5 mg/kg) was injected to a separate group of mice as a positive control. One-way Anova indicated significant effects (F=8.9, df=4.27, P<0.01). […] Data are presented as means±SEM. DMI=desipramine […]

TNF-α and IL-1β mRNA = assay: IL-1β and TNFα mRNA expression after CHI (real-time PCR); type: in vivo, mice; details: 3 hours after CHI, 50 mg/kg, relative to β-actin, P<0.05
Description: IL-1β and TNFα mRNA levels were quantified 3 hours post-injury by real time polymarerase chain reaction. β-actin was used as endogenous control. *p<0.05 vs. vehicle, as determined by student's t-tests.
The mRNA levels of these cytokines were quantified at 3 hours after CHI using real-time PCR.

closed head injury = assay: Tissue edema formation (tissue water content) after CHI; type: in vivo, mice; details: left (ipsilateral) hemisphere, 24 h after injury; P=0.15 vs vehicle
[1] = test system: IKKα and IKKβ phosphorylation; assay: TNFα-induced phosphorylation of the IKKs in HeLa cells; type: cell-based; details: TNFα 20 ng/ml for 20 minutes, IA 140 μM
Description: (A) IA inhibits IKK phosphorylation. HeLa cells were stimulated with TNFα (20 ng/ml for 20 minutes) in the absence or presence of IA (140 μM) as shown. Whole cell extracts were prepared and analyzed for the phosphoryation of IKKα and IKKβ by Western blotting (WB). (B) HeLa cells were stimulated with TNFα (20 ng/ml for 20 minutes) in the absence or presence of IA (140 μM). Cells were fixed and then stained with rabbit anti-p65 followed by anti-rabbit Rhodamine Red-labeled secondary Ab. and with DAPI for nuclei location (not shown). (B1) HeLa cells, no treatment; (B2) HeLa cells +IA; (B3) HeLa cells +TNF; (B4) HeLa cells +IA+TNF. The cells were examined under an Axioscope Zeiss microscope with a plan-Neofluor * 60 lens. Results of one of three independent experiments are shown.
Western Blot (WB). Following separation by SDS-PAGE, proteins were blotted to a polyvinylidene difluoride (PVDF) membrane (Millipore). The membrane was blocked in 5% (w/v) milk powder and then incubated in TBST containing the primary antibody and 2% (w/v) milk powder. All phospho-specific antibodies were purchased from Cell signaling Inc. αIκBa, αp65 and αCOX2 antibodies from Santa Cruz Inc. (California, USA). […]

## CC(=O)OC1CC/C(C)=C/CC/C(C)=C/CC2(C(C)C)CCC1(C)O2 (stereo not drawn) [IA, incensole acetate]
TRPV3; TRPV3−/− mice, IA vs vehicle
  time on the open arms, TRPV3−/− mice: spent identical time on the open arms
TRPV3; WT mice, 30 min after injection
  time on the open arms, WT mice: potent anxiolytic-like effect
TNF-α and IL-1β mRNA
  IL-1β mRNA expression: significantly inhibited mRNA expression
  TNF-α mRNA expression: significantly inhibited mRNA expression
Closed head injury
  tissue water content: 81.47±0.35%
[1]
  IKKα/IKKβ phosphorylation: inhibition of IKKα/IKKβ phosphorylation
